Patent US6352709B1, “Localized use of nitric oxide-adducts to prevent internal tissue damage” (NitroMed, Inc., priority 1993, dated 2002)

Assays:
[1] = system: balloon-injured rabbit femoral artery; experiment: [125I]-S-NO-BSA binding to balloon-injured femoral artery; format: in vivo
Procedure: Rabbit femoral arteries were isolated and balloon-injured as described in Example 1 and [^125I]-S-NO-BSA applied either directly into the injured artery (local) or injected intraarterially via the opposite femoral artery (systemic). [^125I]-S-NO-BSA binding was determined by quantification of radioactivity after flow was reestablished for a period of 15 minutes. Non-specific [^125I]-S-NO-BSA binding (sham) was determined from uninjured carotid artery harvested simultaneously with femoral arteries. Data are presented as mean +/− SEM per gram of wet tissue weight, and are derived from four animals. *P<0.0.029, local vs. systemic delivery and +/+P<0.05, systemic injured vs. sham.
Preparation of [^125I]-labeled S-NO-BSA and [^111In] labeled platelets: BSA (0.1 mg/ml) was combined with two IODO-BEADS and 0.1 mCi of Na[^125I]. The solution was incubated for 45 minutes and unincorporated Na[^125I] was removed by gel filtration with Sephadex G25 equilibrated with TBS containing 0.1 mg/ml BSA. […] [^111In]-labeling of platelets was performed after the method of Wistow and colleagues.^(17)
(§1) Animal Preparation: All animal preparations were performed within the institutional guidelines of the Brockton/West Roxbury Department of Veteran Affairs Medical Center and Boston University Medical Center, and in accordance with the guiding principles of the American Physiological Society. New Zealand white rabbits (3.5-4.2 kg) of either sex were premedicated with 5 mg/kg intramuscular (IM) xylazine hydrochlolide (Miles Pharmaceuticals, Shawnee Mission, Kans.), and 0.1 mg/kg subcutaneous (SC) atropine sulfate (Lyphomed, Deerfield, Ill.) fifteen minutes prior to the induction of anesthesia. Anesthesia was induced with 40 mg/kg IM ketamine hydrochloride (Fort Dodge Laboratories, Fort Dodge, Ind.) and 5 mg/kg IM acepromazine maleate (Aveco Company, Inc., Fort Dodge, Ind.). Additional doses of ketamine hydrochloride were administered as necessary to maintain anesthesia. For survival studies, 100,000 U penicillin G (Apothecon of Bristol-Myers Squibb, Princeton, N.J.), was administered IM perioperatively. […]

[2] = system: balloon-injured rabbit femoral artery; experiment: Neointimal proliferation after balloon injury of femoral artery (morphometry); format: in vivo
Procedure: Femoral arteries were isolated and balloon injured as described below. pS-BSA or pS-NO-BSA were applied in a paired fashion directly into the arterial lumen for 15 minutes and then blood flow was re-established. […] Neointimal proliferation is reported as the absolute neointimal area in FIG. 5A and as a ratio of neointima/media in FIG. 5B in 4-6 segments from each artery. Data are expressed as mean +/− SEM and are derived from 15 vessels in the BSA and S-NO-BSA groups, 11 vessels in the PS-BSA group, 7 vessels in the PS-NO-BSA and SHAM groups, and 5 in the SNP group. *P<0.05, pS-NO-BSA vs. PS-BSA. +/+P<0.05 Sodium nitroprusside vs. pS-BSA for both FIGS. 5A and 5B.
Animal Preparation: All animal preparations were performed within the institutional guidelines of the Brockton/West Roxbury Department of Veteran Affairs Medical Center and Boston University Medical Center, and in accordance with the guiding principles of the American Physiological Society. New Zealand white rabbits (3.5-4.2 kg) of either sex were premedicated with 5 mg/kg intramuscular (IM) xylazine hydrochlolide (Miles Pharmaceuticals, Shawnee Mission, Kans.), and 0.1 mg/kg subcutaneous (SC) atropine sulfate (Lyphomed, Deerfield, Ill.) fifteen minutes prior to the induction of anesthesia. Anesthesia was induced with 40 mg/kg IM ketamine hydrochloride (Fort Dodge Laboratories, Fort Dodge, Ind.) and 5 mg/kg IM acepromazine maleate (Aveco Company, Inc., Fort Dodge, Ind.). Additional doses of ketamine hydrochloride were administered as necessary to maintain anesthesia. For survival studies, 100,000 U penicillin G (Apothecon of Bristol-Myers Squibb, Princeton, N.J.), was administered IM perioperatively. The skin over the femoral arteries was next infiltrated with 1% lidocaine (Astra Pharmaceuticals, Inc., Westborough, Mass.) and the common femoral arteries were exposed from the inguinal ligament to the superficial femoral artery. Arteries were cleared of connective tissue, side branches were ligated, and the superficial femoral artery was suspended with silk ties. A 1.5-to-2.0 cm length of femoral artery was isolated from the circulation proximally and distally with neurosurgical microaneurysm clips. The superficial femoral-artery was cannulated with a 2F Fogarty balloon catheter (American Edwards Laboratories, Santa Ana, Calif.) that was passed into the isolated segment of femoral artery. The balloon was inflated with sufficient air to generate slight resistance and withdrawn three times. A 20 g angiocath was then inserted in the arteriotomy and 1 ml of 25.8 mg/ml PS-NO-BSA or 49.2 mg/ml S-NO-BSA was administered over 15 minutes. The contralateral femoral artery was prepared identically and an appropriate control (25.8 mglml pS-BSA, 49.2 mg/ml BSA or 0.66 mg/ml sodium nitroprusside) was administered. For binding studies, 0.5 ml of [^125I]-labeled nitrosylated albumin or control was administered. Following administration of the agent, the superficial femoral artery was ligated and flow reestablished. Sham-operated animals underwent surgical exposure and sidebranch ligation, but no balloon injury was performed or local delivery administered. The area of balloon injury was marked by surgical staples in the adjacent muscle fascia. For chronic studies, the incision was closed with subcuticular absorbable suture and the animals allowed to recover. For acute studies, blood was allowed to circulate through the treated areas for 15 minutes prior to vessel harvest. In some experiments, a distant control vessel, the right carotid artery, was isolated and harvested without any other manipulation.
A 7F plastic cannula was inserted into the abdominal aorta and the vessels perfused clear with saline followed by fixation at 100 mm Hg pressure with 10% buffered formalin. The vessels were stored in 10% buffered formalin and the samples paraffin-embedded and microtome-sectioned. […]

vessel cGMP = experiment: Vessel tissue cGMP after local treatment of balloon-injured artery; format: in vivo, rabbit; conditions: treated balloon-injured vessel segments, n=3
Procedure: (§2) cGMP analysis: Whole blood was obtained from fasting human volunteers and platelet-rich plasma (PRP) was prepared by centrifugation. Platelet counts were determined using a Coulter counter model ZM (Coulter Diagnostics, Hileah, Fla.). After balloon injury and treatment with pS-NO-BSA or PS-BSA, arterial segments were harvested and 2-mm segments were incubated with 100 μl of PRP containing 10 μM isobutylmethylxanthine. After 1 minute, an equal volume of ice-cold 10% trichloroacetic acid was added to each aliquot and the sample vortexed. Enzyme-linked immunoassay of cGMP was then performed (Cayman Chemical Company, Ann Arbor, Mich.). Separate 2 mm vessel segments were also assayed for tissue CGMP after treatment with ice-cold 10% trichloroacetic acid and sonication (Heat Systems-Utrasonics, Inc., Plainview, N.Y.).

platelet cGMP = experiment: Platelet cGMP in platelet-rich plasma exposed ex vivo to treated vessel rings; format: cell-based, human; conditions: one-minute exposure of PRP to treated vessel rings, 10 μM isobutylmethylxanthine, n=14
Procedure: Rabbit femoral arteries were isolated and balloon-injured as described with reference to FIG. 4. After paired local administration of polythiolated S-nitroso-albumin and polythiolated albumin for 15 minutes, the vessels were harvested and divided into 2 mm rings. The rings were then immersed in 100 μl of platelet-rich plasma containing 10 μM 3-isobutyl-1-methylxanthine and were incubated for 1 minute ex-vivo. An equal volume of ice-cold 10% trichloroacetic acid was added to each aliquot and the sample vortexed. Platelet cGMP assay was then performed as described in “Methods.” Data are expressed as mean +/− SEM. *P<0.05.
as §2, with “Separate 2 mm vessel segments were also assayed for tissue CGMP after treatment with ice-cold 10% trichloroacetic acid and sonication (Heat Systems-Utrasonics, Inc., Plainview, N.Y.).” left out

[3] = system: [^111In]-labeled platelets; experiment: [111In]-labeled platelet binding to balloon-injured femoral arteries; format: in vivo, rabbit; conditions: for adhesion of [^111In]-labelled platelets to injured vessels: local administration 15 minutes, 15 minutes recirculation, n=6
Procedure: Femoral arteries were isolated and balloon injured as described in Example 1. During paired local administration of polythiolated S-nitroso-albumin and polythiolated albumin, [^111In]-labeled platelets were administered intravenously and allowed to circulate after flow was reestablished in the treated arteries. [^111In]-labeled platelet binding was determined by quantification of radioactivity after flow was re-established for a period of 15 minutes. Non-specific [^111In]-labeled platelet binding (Uninjured Carotid Artery) was determined from uninjured carotid artery harvested with femoral arteries. Data are presented as mean +/− SEM per gram of wet tissue weight and are derived from six animals. *P<0.05, PS-BSA vs. pS-NO-BSA.
as §1, with “perioperatively. The skin over the femoral arteries was next infiltrated with 1% lidocaine (Astra Pharmaceuticals, Inc., Westborough, Mass.) and the common femoral arteries were exposed from the inguinal ligament to the superficial femoral artery.” for “perioperatively.”

[4] = system: proliferating cell nuclear antigen; experiment: PCNA staining of proliferating cells 7 days after balloon injury; format: in vivo, rabbit; conditions: 7 days after injury
Procedure: In a separate set of animals, vessels were perfusion-fixed with 10% buffered formalin seven days after injury and processed for analysis of proliferating cells within 12 hours as described above. Sections were stained for proliferating cell nuclear antigen and adjacent sections were stained with hematoxylin and eosin. Five representative sections from each segment were examined. Total nuclei were counted from the hematoxylin and eosin slides and percent PCNA positive cells were defined as the number of PCNA-positive nuclei divided by the total number of nuclei multiplied by 100.

[5] = 14 days after balloon injury, local delivery 15 minutes
[6] = 14 days after balloon injury, n=7

## [^125I]-S-NO-BSA: [125I]-labeled S-nitroso-albumin used for binding studies
[1]; applied directly into injured artery, 15 minutes flow, n=4
  binding to injured femoral artery, local delivery: 140.4+/−3.9 ×10^3 cpm/gm
[1]; injected intraarterially via opposite femoral artery, 15 minutes flow, n=4
  binding to injured femoral artery, systemic delivery: 5.4+/−0.9 ×10^3 cpm/gm
[1]; injured femoral artery
  increase in binding, local vs systemic delivery: 26 fold

## pS-BSA: thiolated bovine serum albumin, non-nitrosylated control for pS-NO-BSA [reference compound]
[2]; 7 days after injury, n=5
  neointima/media ratio: 0.068±0.027
  neointimal area: 0.258+/−0.19 ×10^5 μm^2
[2]; [5]
  neointima/media ratio: 0.85+/−0.122
  neointimal area: 2.24+/−0.328 ×10^5 μm^2
Vessel cGMP
  vessel cGMP levels: 0.283+/−0.23 pmol/mg protein
Platelet cGMP
  platelet cGMP: 4.11+/−0.9 pmol 10^8 platelets
[3]
  adhesion of [^111In]-labelled platelets to injured vessels: 71.3+/−40.4 ×10^3 cpm/gm
[4]
  percent of proliferating (PCNA positive) cells: 30.1% +/−5.9

## pS-NO-BSA: polythiolated S-nitroso-albumin; thiolated BSA nitrosylated with NaNO2 in HCl
[2]; 7 days after injury, n=5
  neointima/media ratio: 0.032±0.005
  neointimal area: 0.124±0.06 ×10^5 μm^2
[2]; [5]
  neointima/media ratio: 0.196 +/−0.66
  neointimal area: 0.41+/−0.11 ×10^5 μm^2
[2]; [6]
  reduction of neointima/media ratio vs control: 77%
  reduction of neointimal area vs control: 81%
Vessel cGMP
  vessel cGMP levels: 0.48+/−0.46 pmol/mg protein
Platelet cGMP
  platelet cGMP: 19.9+/−3.3 pmol 10^8 platelets
[3]
  adhesion of [^111In]-labelled platelets to injured vessels: 16.3+/−6.2 ×10^3 cpm/gm
[3]; local administration, injured femoral artery
  reduction of platelet adhesion compared to control: over four-fold
[4]
  percent of proliferating (PCNA positive) cells: 37.8% +/−5.9
